# In patent US20040224960A1, “Pharmaceutical compositions and methods for their use” (Agouron Pharmaceuticals, Inc., priority 2003, published 2004):
# Molecular target: T1, cytochrome P450 2D6 (Homo sapiens, UniProt P10635)
# T1 construct: were incubated with human liver microsomes (0.25 mg/mL protein and 0.075 μM P450); from tissue; host or cells: human liver microsomes
# Assay: inhibition of cytochrome P450 2D6 in human liver microsomes (dextromethorphan to dextrorphan)
# Format: biochemical
# Details: human liver microsomes 0.25 mg/mL protein, 8 μM dextromethorphan, 1 mM NADPH, 37° C., 20 min; average IC50 with number of tests in parentheses
# Description: Following the 20 min incubation, the reaction was quenched by addition of 200 μL acetonitrile containing 0.1 μM buspirone as an internal standard. The samples were then vortex mixed and centrifuged to pellet the protein. The supernantant was transferred, dried under nitrogen flow and reconstituted in mobile phase. A 10 uL aliquot was injected onto a gradient reversed phase HPLC system with a Phenomenex Luna C18 (50×4.6 mm) column. Dextrorphan, formed by the metabolism of dextromethorphan by CYP 2D6, was monitored using tandem MS/MS in the APCl mode with the MRM transition of m/z 258.3>156.6. Remaining-CYP2D6 activity (%) was determined for the samples relative to a vehicle control. The data were analyzed by non-linear regression according to % R=% Rmax[formula](1−(C/(C+IC50))) using WinNonLin (version 4.0.1), where % R is the % remaining CYP 2D6 activity relative to the vehicle control, C is the concentration of the compound of interest, and IC50 is the inhibitory concentration of the compound of interest giving 50% inhibition of maximal % remaining activity. The data are reported as IC50s (μM). If more than one assay was performed for a particular compound, the average IC50 is reported with the number of tests in parentheses.
# T1 sequence (P10635 whole entry): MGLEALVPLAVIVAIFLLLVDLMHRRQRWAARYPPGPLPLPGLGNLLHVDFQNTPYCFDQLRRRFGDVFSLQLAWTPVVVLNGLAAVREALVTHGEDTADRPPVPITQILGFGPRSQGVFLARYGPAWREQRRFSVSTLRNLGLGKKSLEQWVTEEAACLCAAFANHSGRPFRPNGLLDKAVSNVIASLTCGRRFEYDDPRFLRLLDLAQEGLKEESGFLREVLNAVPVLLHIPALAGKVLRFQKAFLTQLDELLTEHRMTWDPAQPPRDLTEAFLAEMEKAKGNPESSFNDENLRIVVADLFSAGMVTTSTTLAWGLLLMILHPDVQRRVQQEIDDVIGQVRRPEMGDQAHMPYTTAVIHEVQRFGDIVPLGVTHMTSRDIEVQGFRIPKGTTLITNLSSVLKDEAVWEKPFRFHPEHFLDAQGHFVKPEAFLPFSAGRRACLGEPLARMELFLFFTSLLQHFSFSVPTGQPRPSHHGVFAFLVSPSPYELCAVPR
row,IC50 [nM],Structure (SMILES)
1,670,"Cc1cnc2nc(CC3=C(O)CC(CCc4cc(F)c(C(C)(C)C#N)c(F)c4)(C4CCCC4)OC3=O)nn2c1 (single isomer, unassigned) [Compound 32, 2-[4-(2-{2-cyclopentyl-4-hydroxy-5-[(6-methyl[1,2,4]triazolo[1,5-a]pyrimidin-2-yl)methyl]-6-oxo-3,6-dihydro-2H-pyran-2-yl}ethyl)-2,6-difluorophenyl]-2-methylpropanenitrile]"
2,600,"CC(C)(O)c1ccc(CCC2(C3CCCC3)CC(O)=C(Cc3nc4ncc(Cl)cn4n3)C(=O)O2)cc1F (stereo not drawn) [Compound 22, 3-[(6-chloro[1,2,4]triazolo[1,5-a]pyrimidin-2-yl)methyl]-6-cyclopentyl-6-{2-[3-fluoro-4-(1-hydroxy-1-methylethyl)phenyl]ethyl}-4-hydroxy-5,6-dihydro-2H-pyran-2-one]"
3,300,"Cc1cc(C)n2nc(CC3=C(O)CC(CCc4ccc(C5(C#N)CC5)c(F)c4)(C4CCCC4)OC3=O)nc2n1 (racemic) [Compound 27, 1-[4-(2-{2-cyclopentyl-5-[(5,7-dimethyl[1,2,4]triazolo[1,5-a]pyrimidin-2-yl)methyl]-4-hydroxy-6-oxo-3,6-dihydro-2H-pyran-2-yl}ethyl)-2-fluorophenyl]cyclopropanecarbonitrile]"
4,1100,"N#CC1(c2ccc(CCC3(C4CCCC4)CC(O)=C(Cc4nc5ncccn5n4)C(=O)O3)cc2F)CC1 (racemic) [Compound 25, 1-(4-{2-[2-cyclopentyl-4-hydroxy-6-oxo-5-([1,2,4]triazolo[1,5-a]pyrimidin-2-ylmethyl)-3,6-dihydro-2H-pyran-2-yl]ethyl}-2-fluorophenyl)cyclopropanecarbonitrile]"
5,280,"Cc1cnc2nc(CC3=C(O)CC(CCc4ccc(C5(C#N)CC5)c(F)c4)(C4CCCC4)OC3=O)nn2c1 (single isomer, unassigned) [Compound 23, 1-[4-(2-{2-cyclopentyl-4-hydroxy-5-[(6-methyl[1,2,4]triazolo[1,5-a]pyrimidin-2-yl)methyl]-6-oxo-3,6-dihydro-2H-pyran-2-yl}ethyl)-2-fluorophenyl]cyclopropanecarbonitrile]"
6,< 74,"N#CC1(c2ccc(CCC3(C4CCCC4)CC(O)=C(Cc4nc5ncccn5n4)C(=O)O3)cc2F)CC1 (stereo not drawn) [Compound 11, 1-(4-{2-[2-cyclopentyl-4-hydroxy-6-oxo-5-([1,2,4]triazolo[1,5-a]pyrimidin-2-ylmethyl)-3,6-dihydro-2H-pyran-2-yl]ethyl}-2-fluorophenyl)cyclopropanecarbonitrile]"
7,190,"Cc1cnc2nc(CC3=C(O)CC(CCc4cc(F)c(C5(C#N)CC5)c(F)c4)(C4CCCC4)OC3=O)nn2c1 (stereo not drawn) [Compound 30, 1-[4-(2-{2-cyclopentyl-4-hydroxy-5-[(6-methyl[1,2,4]triazolo[1,5-a]pyrimidin-2-yl)methyl]-6-oxo-3,6-dihydro-2H-pyran-2-yl}ethyl)-2,6-difluorophenyl]cyclopropanecarbonitrile]"
8,1400,"CCc1cc(CCC2(C3CCCC3)CC(O)=C(Cc3nc4nc(C)cc(C)n4n3)C(=O)O2)ccc1O (stereo not drawn) [Compound 2, 6-Cyclopentyl-3-(5,7-dimethyl-[1,2,4]triazolo[1,5-a]pyrimidin-2-ylmethyl)-6-(2-(3-ethyl-4-hydroxy-phenyl)-ethyl]-4-hydroxy-5,6-dihydro-pyran-2-one]"
9,270,"N#CC1(c2ccc(CCC3(C4CCCC4)CC(O)=C(Cc4nc5ncc(Cl)cn5n4)C(=O)O3)cc2F)CC1 (stereo not drawn) [Compound 14, 1-[4-(2-{5-[(6-chloro[1,2,4]triazolo[1,5-a]pyrimidin-2-yl)methyl]-2-cyclopentyl-4-hydroxy-6-oxo-3,6-dihydro-2H-pyran-2-yl}ethyl)-2-fluorophenyl]cyclopropanecarbonitrile]"
10,130,"CCc1cnc2nc(CC3=C(O)CC(CCc4cc(F)c(C(C)(C)C#N)c(F)c4)(C4CCCC4)OC3=O)nn2c1 (stereo not drawn) [Compound 28, 2-[4-(2-{2-cyclopentyl-5-[(6-ethyl[1,2,4]triazolo[1,5-a]pyrimidin-2-yl)methyl]-4-hydroxy-6-oxo-3,6-dihydro-2H-pyran-2-yl}ethyl)-2,6-difluorophenyl]-2-methylpropanenitrile]"
11,200,"Cc1cc(C)n2nc(CC3=C(O)CC(COc4ccc(C(C)(C)C#N)c(F)c4)(C4CCCC4)OC3=O)nc2n1 (stereo not drawn) [Compound 16, 2-[4-({2-cyclopentyl-5-[(5,7-dimethyl[1,2,4]triazolo[1,5-a]pyrimidin-2-yl)methyl]-4-hydroxy-6-oxo-3,6-dihydro-2H-pyran-2-yl}methoxy)-2-fluorophenyl]-2-methylpropanenitrile]"
12,890,"CC(C)(C#N)c1ccc(CCC2(C3CCCC3)CC(O)=C(Cc3cn4ccccc4n3)C(=O)O2)cc1F (stereo not drawn) [Compound 21, 2-(4-{2-[2-cyclopentyl-4-hydroxy-5-(imidazo[1,2-a]pyridin-2-ylmethyl)-6-oxo-3,6-dihydro-2H-pyran-2-yl]ethyl}-2-fluorophenyl)-2-methylpropanenitrile]"
